Measurements as given in ChEMBL document CHEMBL1157938, “Cytotoxicity and inhibition of DNA topoisomerase I of polyhydroxylated triterpenoids and triterpenoid glycosides” (Bioorg Med Chem Lett, 2010).
The source made the active and inactive calls. No cut-off for these calls is given here.

Assays:
[1] = tested on: A549; experiment: Cytotoxicity against human A549 cells after 48 hrs by WST8 assay; assay type: functional; conditions: A549, 48 h
[2] = target: T1, DNA topoisomerase 1 (Homo sapiens, UniProt P11387); experiment: Inhibition of human DNA topoisomerase 1-mediated relaxation of supercoiled DNA by gel electrophoresis
T1 sequence (P11387 whole entry): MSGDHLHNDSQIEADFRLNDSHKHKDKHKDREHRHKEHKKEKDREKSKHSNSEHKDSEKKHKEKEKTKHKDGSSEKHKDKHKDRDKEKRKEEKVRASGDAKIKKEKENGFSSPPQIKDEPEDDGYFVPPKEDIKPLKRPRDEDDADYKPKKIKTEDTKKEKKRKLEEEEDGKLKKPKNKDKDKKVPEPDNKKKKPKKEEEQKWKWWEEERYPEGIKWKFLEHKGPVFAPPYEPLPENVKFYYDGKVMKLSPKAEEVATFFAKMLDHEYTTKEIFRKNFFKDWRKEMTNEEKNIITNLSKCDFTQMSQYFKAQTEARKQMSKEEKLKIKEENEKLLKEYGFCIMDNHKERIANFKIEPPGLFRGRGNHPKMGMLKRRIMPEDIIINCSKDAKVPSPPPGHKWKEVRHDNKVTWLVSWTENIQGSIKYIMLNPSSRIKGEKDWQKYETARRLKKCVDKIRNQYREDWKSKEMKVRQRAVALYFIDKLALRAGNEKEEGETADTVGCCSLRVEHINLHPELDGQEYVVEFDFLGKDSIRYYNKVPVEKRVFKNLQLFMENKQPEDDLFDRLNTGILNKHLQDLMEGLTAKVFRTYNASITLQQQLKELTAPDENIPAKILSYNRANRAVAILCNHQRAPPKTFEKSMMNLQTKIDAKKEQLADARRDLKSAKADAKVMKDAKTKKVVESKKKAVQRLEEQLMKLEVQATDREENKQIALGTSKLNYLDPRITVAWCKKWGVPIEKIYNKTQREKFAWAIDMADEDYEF

[3] = tested on: HL-60; experiment: Cytotoxicity against human HL60 cells after 48 hrs by WST8 assay; assay type: functional; conditions: HL-60, 48 h
[4] = tested on: PC-3; experiment: Cytotoxicity against human PC3 cells after 48 hrs by WST8 assay; assay type: functional; conditions: PC-3, 48 h
[5] = tested on: PANC-1; experiment: Cytotoxicity against human PANC1 cells after 48 hrs by WST8 assay; assay type: functional; conditions: PANC-1, 48 h
[6] = Cytotoxicity against human MRC5 cells after 48 hrs by WST8 assay; assay type: cell-based
[7] = target: DNA topoisomerase 2-alpha (Homo sapiens, UniProt P11388); experiment: Inhibition of human DNA topoisomerase 2-mediated relaxation of supercoiled DNA by gel electrophoresis
[8] = tested on: PANC-1; experiment: Cytotoxicity against human PANC1 cells at 25 uM after 48 hrs by WST8 assay; assay type: functional, cell-based
[9] = tested on: HL-60; experiment: Cytotoxicity against human HL60 cells at 25 uM after 48 hrs by WST8 assay; assay type: functional, cell-based
[10] = tested on: MRC5; experiment: Cytotoxicity against human MRC5 cells at 25 uM after 48 hrs by WST8 assay; assay type: cell-based; conditions: mrc5, 48 h
[11] = tested on: A549; experiment: Cytotoxicity against human A549 cells at 25 uM after 48 hrs by WST8 assay; assay type: functional, cell-based
[12] = tested on: PC-3; experiment: Cytotoxicity against human PC3 cells at 25 uM after 48 hrs by WST8 assay; assay type: functional, cell-based

Chain of DNA topoisomerase 2-alpha (P11388 whole entry): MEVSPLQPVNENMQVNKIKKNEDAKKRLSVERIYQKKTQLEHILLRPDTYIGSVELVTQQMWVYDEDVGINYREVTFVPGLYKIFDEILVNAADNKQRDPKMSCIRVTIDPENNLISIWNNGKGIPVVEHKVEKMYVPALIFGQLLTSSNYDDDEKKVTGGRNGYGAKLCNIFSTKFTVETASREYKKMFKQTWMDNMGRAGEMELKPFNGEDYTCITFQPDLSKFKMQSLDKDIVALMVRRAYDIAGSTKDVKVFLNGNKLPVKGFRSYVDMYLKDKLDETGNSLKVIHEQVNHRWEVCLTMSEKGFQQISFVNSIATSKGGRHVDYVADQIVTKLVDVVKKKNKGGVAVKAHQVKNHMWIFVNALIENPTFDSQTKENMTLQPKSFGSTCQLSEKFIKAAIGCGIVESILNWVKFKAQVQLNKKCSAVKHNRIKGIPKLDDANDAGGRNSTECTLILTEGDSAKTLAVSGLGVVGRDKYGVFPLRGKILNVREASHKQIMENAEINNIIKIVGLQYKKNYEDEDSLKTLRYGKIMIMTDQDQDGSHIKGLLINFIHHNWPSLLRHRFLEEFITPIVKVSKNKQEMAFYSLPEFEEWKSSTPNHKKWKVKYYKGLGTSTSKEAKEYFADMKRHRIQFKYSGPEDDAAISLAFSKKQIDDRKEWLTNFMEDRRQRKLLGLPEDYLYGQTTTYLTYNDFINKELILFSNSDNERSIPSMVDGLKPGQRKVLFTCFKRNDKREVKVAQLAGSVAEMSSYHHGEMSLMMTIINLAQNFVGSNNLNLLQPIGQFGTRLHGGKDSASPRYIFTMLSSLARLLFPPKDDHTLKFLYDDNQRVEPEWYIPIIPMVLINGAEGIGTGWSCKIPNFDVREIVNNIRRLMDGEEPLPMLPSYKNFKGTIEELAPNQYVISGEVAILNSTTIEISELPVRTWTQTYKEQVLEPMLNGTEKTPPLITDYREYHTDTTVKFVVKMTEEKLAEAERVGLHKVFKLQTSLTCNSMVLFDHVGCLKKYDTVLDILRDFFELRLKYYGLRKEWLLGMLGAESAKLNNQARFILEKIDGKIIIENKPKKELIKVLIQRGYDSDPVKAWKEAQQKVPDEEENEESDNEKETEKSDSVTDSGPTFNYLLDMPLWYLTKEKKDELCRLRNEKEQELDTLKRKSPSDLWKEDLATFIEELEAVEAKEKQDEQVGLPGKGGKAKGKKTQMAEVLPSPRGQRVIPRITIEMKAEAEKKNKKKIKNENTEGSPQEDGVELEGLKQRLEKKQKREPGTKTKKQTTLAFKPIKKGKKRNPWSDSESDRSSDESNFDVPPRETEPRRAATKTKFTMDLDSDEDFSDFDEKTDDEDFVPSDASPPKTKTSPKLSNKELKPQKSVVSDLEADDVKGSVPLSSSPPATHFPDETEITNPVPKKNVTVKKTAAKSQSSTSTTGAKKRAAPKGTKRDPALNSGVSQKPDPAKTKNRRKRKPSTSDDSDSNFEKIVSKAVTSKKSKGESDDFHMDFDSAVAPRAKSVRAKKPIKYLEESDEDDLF

## C/C=C(/C)C(=O)O[C@H]1[C@H](OC(C)=O)[C@]2(CO)[C@H](O)C[C@]3(C)C(=CC[C@@H]4[C@@]5(C)CC[C@H](O[C@@H]6O[C@H](C(=O)O)[C@@H](O)[C@H](O[C@@H]7OC[C@H](O)[C@H](O)[C@H]7O)[C@H]6O[C@@H]6O[C@H](CO)[C@@H](O)[C@H](O)[C@H]6O)C(C)(C)[C@@H]5CC[C@]43C)[C@@H]2CC1(C)C [ERYNGIIOSIDE L]
[1]
  GI50: 8.35 µM
[2]
  IC50: > 250 µM
[3]
  GI50: 8.41 µM
[4]
  GI50: 11.3 µM
[5]
  GI50: 13 µM
[6]
  GI50 at 48 h: 8.71 µM
[7]
  IC50: > 250 µM

## C/C=C(/C)C(=O)O[C@H]1[C@H](O)C(C)(C)C[C@H]2C3=CC[C@@H]4[C@@]5(C)CC[C@H](O[C@@H]6O[C@H](C(=O)O)[C@@H](O)[C@H](O[C@@H]7OC[C@@H](O)[C@H](O)[C@H]7O)[C@H]6O[C@@H]6O[C@H](CO)[C@@H](O)[C@H](O)[C@H]6O)C(C)(C)[C@@H]5CC[C@@]4(C)[C@]3(C)C[C@@H](O)[C@]21CO [ERYNGIOSIDE F]
[8]
  growth inhibition (GI): inactive
[2]
  IC50: > 250 µM
[9]
  growth inhibition (GI): inactive
[10]
  growth inhibition (GI): Not Active
[11]
  growth inhibition (GI): inactive
[12]
  growth inhibition (GI): inactive
[7]
  IC50: > 250 µM

## C/C=C(/C)C(=O)O[C@H]1[C@H](O)[C@]2(CO)[C@H](O)C[C@]3(C)C(=CC[C@@H]4[C@@]5(C)CC[C@H](O)[C@](C)(CO)[C@@H]5CC[C@]43C)[C@@H]2CC1(C)C
[1]
  GI50: 2.45 µM
[2]
  IC50: > 250 µM
[9]
  growth inhibition (GI): inactive
[4]
  GI50: 2.23 µM
[5]
  GI50: 11.9 µM
[6]
  GI50 at 48 h: 18.1 µM
[7]
  IC50: > 250 µM

## C/C=C(/C)C(=O)O[C@H]1[C@H](OC(=O)/C(C)=C\C)[C@]2(CO)[C@H](O)C[C@]3(C)C(=CC[C@@H]4[C@@]5(C)CC[C@H](O)[C@](C)(CO)[C@@H]5CC[C@]43C)[C@@H]2CC1(C)C
[1]
  GI50: 1.94 µM
[2]
  IC50: > 250 µM
[3]
  GI50: 2.72 µM
[4]
  GI50: 2.39 µM
[5]
  GI50: 4.63 µM
[6]
  GI50 at 48 h: 1.65 µM
[7]
  IC50: > 250 µM

## C/C=C(\C)C(=O)O[C@H]1[C@H](OC(C)=O)[C@]2(CO)[C@H](O)[C@H](O)[C@]3(C)C(=CC[C@@H]4[C@@]5(C)CC[C@H](O[C@@H]6O[C@H](C(=O)O)[C@@H](O)[C@H](O[C@@H]7O[C@@H](CO)[C@H](O)[C@H]7O)[C@H]6O[C@@H]6O[C@H](CO)[C@H](O)[C@H](O)[C@H]6O)C(C)(C)[C@@H]5CC[C@]43C)[C@@H]2CC1(C)C [AESCULIOSIDE IIF]
[8]
  growth inhibition (GI): inactive
[2]
  IC50: > 250 µM
[9]
  growth inhibition (GI): inactive
[10]
  growth inhibition (GI): Not Active
[11]
  growth inhibition (GI): inactive
[12]
  growth inhibition (GI): inactive
[7]
  IC50: > 250 µM

## C/C=C(/CC)C(=O)O[C@H]1[C@H](OC(C)=O)[C@]2(CO)[C@H](O)[C@H](O)[C@]3(C)C(=CC[C@@H]4[C@@]5(C)CC[C@H](O[C@@H]6O[C@H](C(=O)O)[C@@H](O)[C@H](O[C@@H]7OC[C@H](O)[C@H](O)[C@H]7O)[C@H]6O[C@@H]6O[C@H](CO)[C@@H](O)[C@H](O)[C@H]6O)C(C)(C)[C@@H]5CC[C@]43C)[C@@H]2CC1(C)C [SANICULASAPONIN III]
[1]
  GI50: 4.73 µM
[2]
  IC50: > 250 µM
[3]
  GI50: 7.11 µM
[4]
  GI50: 8.51 µM
[5]
  GI50: 16 µM
[6]
  GI50 at 48 h: 3.54 µM
[7]
  IC50: > 250 µM

## C/C=C(/C)C(=O)O[C@H]1[C@H](OC(=O)C(C)CC)[C@]2(CO)[C@H](O)C[C@]3(C)C(=CC[C@@H]4[C@@]5(C)CC[C@H](O)C(C)(C)[C@@H]5CC[C@]43C)[C@@H]2CC1(C)C (some centres undefined)
[1]
  GI50: 1.7 µM
[2]
  IC50: > 250 µM
[3]
  GI50: 4.6 µM
[4]
  GI50: 4.11 µM
[5]
  GI50: 9.6 µM
[6]
  GI50 at 48 h: 3.67 µM
[7]
  IC50: > 250 µM

## C/C=C(/C)C(=O)O[C@H]1[C@H](OC(C)=O)[C@]2(CO)[C@H](O)[C@H](O)[C@]3(C)C(=CC[C@@H]4[C@@]5(C)CC[C@H](O[C@@H]6O[C@H](C(=O)O)[C@@H](O)[C@H](O[C@@H]7O[C@@H](CO)[C@H](O)[C@H]7O)[C@H]6O[C@@H]6O[C@H](CO)[C@H](O)[C@H](O)[C@H]6O)C(C)(C)[C@@H]5CC[C@]43C)[C@@H]2CC1(C)C [AESCULIOSIDE IIG]
[8]
  growth inhibition (GI): inactive
[2]
  IC50: > 250 µM
[9]
  growth inhibition (GI): inactive
[10]
  growth inhibition (GI): Not Active
[11]
  growth inhibition (GI): inactive
[12]
  growth inhibition (GI): inactive
[7]
  IC50: > 250 µM

## C/C=C(\C)C(=O)O[C@H]1[C@H](OC(C)=O)[C@]2(CO)[C@H](O)C[C@]3(C)C(=CC[C@@H]4[C@@]5(C)CC[C@H](O[C@@H]6O[C@H](C(=O)O)[C@@H](O)[C@H](O[C@@H]7O[C@@H](CO)[C@H](O)[C@H]7O)[C@H]6O[C@@H]6O[C@H](CO)[C@H](O)[C@H](O)[C@H]6O)C(C)(C)[C@@H]5CC[C@]43C)[C@@H]2CC1(C)C [AESCULIOSIDE IIJ]
[1]
  GI50: 21.8 µM
[2]
  IC50: > 250 µM
[9]
  growth inhibition (GI): inactive
[4]
  GI50: 13.8 µM
[5]
  GI50: 21.9 µM
[6]
  GI50 at 48 h: 17.3 µM
[7]
  IC50: > 250 µM

## C/C=C(/C)C(=O)O[C@H]1[C@H](OC(=O)C(C)CC)[C@]2(CO)[C@H](O)[C@H](O)[C@]3(C)C(=CC[C@@H]4[C@@]5(C)CC[C@H](O)C(C)(C)[C@@H]5CC[C@]43C)[C@@H]2CC1(C)C (some centres undefined)
[1]
  GI50: 5.37 µM
[2]
  IC50: > 250 µM
[3]
  GI50: 4.21 µM
[4]
  GI50: 12.5 µM
[5]
  GI50: 12.8 µM
[6]
  GI50 at 48 h: 6.53 µM
[7]
  IC50: > 250 µM

## C/C=C(/C)C(=O)O[C@H]1[C@H](OC(=O)C(C)C)[C@]2(CO)[C@H](O)C[C@]3(C)C(=CC[C@@H]4[C@@]5(C)CC[C@H](O)[C@](C)(CO)[C@@H]5CC[C@]43C)[C@@H]2CC1(C)C
[1]
  GI50: 3.81 µM
[2]
  IC50: > 250 µM
[3]
  GI50: 2.53 µM
[4]
  GI50: 2.34 µM
[5]
  GI50: 8 µM
[6]
  GI50 at 48 h: 2.71 µM
[7]
  IC50: > 250 µM

## C/C=C(/C)C(=O)O[C@H]1[C@H](OC(C)=O)[C@]2(CO)[C@H](O)[C@H](O)[C@]3(C)C(=CC[C@@H]4[C@@]5(C)CC[C@H](O[C@@H]6O[C@H](C(=O)O)[C@@H](O)[C@H](O[C@@H]7OC[C@@H](O)[C@H](O)[C@H]7O)[C@H]6O[C@@H]6O[C@H](CO)[C@@H](O)[C@H](O)[C@H]6O)C(C)(C)[C@@H]5CC[C@]43C)[C@@H]2CC1(C)C [ERYNGIIOSIDE J]
[1]
  GI50: 4.3 µM
[2]
  IC50: > 250 µM
[3]
  GI50: 7.36 µM
[4]
  GI50: 5.08 µM
[5]
  GI50: 11.5 µM
[6]
  GI50 at 48 h: 5.61 µM
[7]
  IC50: > 250 µM

## C[C@H]1[C@H](C)CC[C@]2(C)CC[C@]3(C)C(=CC[C@@H]4[C@@]5(C)CC[C@H](O)C(C)(C)[C@@H]5CC[C@]43C)[C@H]12
[1]
  GI50: 10.5 µM
[2]
  IC50: > 250 µM
[9]
  growth inhibition (GI): inactive
[4]
  GI50: 7.66 µM
[5]
  GI50: 12.8 µM
[7]
  IC50: > 250 µM

## C/C=C(/C)C(=O)O[C@H]1[C@H](O)C(C)(C)C[C@H]2C3=CC[C@@H]4[C@@]5(C)CC[C@H](O[C@@H]6O[C@H](C(=O)O)[C@@H](O)[C@H](O[C@@H]7OC[C@@H](O)[C@H](O)[C@H]7O)[C@H]6O[C@@H]6O[C@H](CO)[C@@H](O)[C@H](O)[C@H]6O)C(C)(C)[C@@H]5CC[C@@]4(C)[C@]3(C)[C@@H](O)[C@@H](O)[C@]21CO [ERYNGIOSIDE E]
[8]
  growth inhibition (GI): inactive
[2]
  IC50: > 250 µM
[9]
  growth inhibition (GI): inactive
[10]
  growth inhibition (GI): Not Active
[11]
  growth inhibition (GI): inactive
[12]
  growth inhibition (GI): inactive
[7]
  IC50: > 250 µM

## C/C=C(/C)C(=O)O[C@H]1[C@H](OC(C)=O)[C@]2(CO)[C@H](O)C[C@]3(C)C(=CC[C@@H]4[C@@]5(C)CC[C@H](O[C@@H]6O[C@H](C(=O)O)[C@@H](O)[C@H](O[C@@H]7O[C@@H](CO)[C@H](O)[C@H]7O)[C@H]6O[C@@H]6O[C@H](CO)[C@@H](O)[C@H](O)[C@H]6O)[C@](C)(CO)[C@@H]5CC[C@]43C)[C@@H]2CC1(C)C [AESCULIOSIDE III]
[1]
  GI50: 20.1 µM
[2]
  IC50: > 250 µM
[3]
  GI50: 8.37 µM
[4]
  GI50: 9.54 µM
[5]
  GI50: 14.8 µM
[6]
  GI50 at 48 h: 12.8 µM
[7]
  IC50: > 250 µM
